Blank lines part the entries; values can stand above or below the molecule they belong to. Positions of bridges follow the written chain, without caps; N, C: chain ends. Residues, ends and D or L forms follow the SMILES beside them.
Columns and labels:
[1] = assay type: physicochemical; settings: peptide 1 mg/mL in 9:1 v/v H2O/D2O, heated 20 to 80 °C, 500 MHz 1D 1H NMR
Protocol: A Bruker 500 MHz Avance nuclear magnetic resonance (NMR) spectrometer was used to heat the peptides (1 mg/mL in 9:1 v/v H2O/D2O) and to monitor structural changes at temperatures ranging from 20 to 80 °C. One-dimensional (1D) ^1H NMR spectra and two-dimensional (2D) nuclear Overhauser effect spectroscopy (NOESY) (200 ms mixing time) spectra were acquired and processed using TopSpin 3.5 (Bruker, Billerica, MA, USA) and CCPNMR Analysis 2.4.1 was used in the assignment of the NOE spectra.

[2] = 30 μM peptide, 24 h; for Degradation at pH 12: phosphate buffer pH 12, 37 °C, RP-HPLC trace compared to pH 4
[3] = assay type: physicochemical; settings: 100 °C in water for 30 min, heating block, cooled to 25 °C, C18 RP-HPLC at 215 nm, MALDI-MS of the products
[4] = Human serum isolated from male AB plasma; settings: 37 °C, up to 24 h
[5] = phosphate buffer adjusted to pH 12; settings: 37 °C, up to 24 h

Molecule: CC(C)C[C@@H]1NC(=O)[C@H](Cc2c[nH]cn2)NC(=O)[C@H](CCCCN)NC(=O)[C@@H]2CSSC[C@H](NC(=O)[C@@H](N)[C@@H](C)O)C(=O)N[C@@H](CCCNC(=N)N)C(=O)N[C@@H](Cc3ccc(O)cc3)C(=O)N[C@@H](CC(C)C)C(=O)N[C@@H](Cc3ccccc3)C(=O)NCC(=O)NCC(=O)N[C@H]3CSSC[C@H](NC(=O)[C@H](C)NC1=O)C(=O)N[C@@H](CCCNC(=N)N)C(=O)N[C@@H](CO)C(=O)N[C@@H](CC(=O)O)C(=O)NCC(=O)N[C@@H](CCCCN)C(=O)N[C@@H](Cc1ccc(O)cc1)C(=O)N[C@H](C(=O)N[C@@H](C)C(=O)N[C@@H](Cc1c[nH]c4ccccc14)C(=O)N[C@@H](CC(=O)O)C(=O)NCC(=O)N[C@H](C(=O)N[C@@H](Cc1ccccc1)C(=O)O)[C@@H](C)O)CSSC[C@H](NC(=O)[C@H](CC(=O)O)NC(=O)[C@H](C)NC(=O)[C@H]([C@@H](C)O)NC(=O)[C@H]([C@@H](C)O)NC(=O)[C@H](CCCCN)NC3=O)C(=O)N2 [SgTx-1]
1D 1H NMR spectral changes at 80 °C [1]: peak broadening and loss of intensity
Loss of peptide at pH 2 ([2]; phosphate buffer pH 2, 37 °C, RP-HPLC relative to pH 4): small loss of peptide
Analytical RP-HPLC trace after boiling [3]: minor degradation product
Mass loss of degradation product from native peptide after boiling: 18 Da

Molecule: ECLGFGKGCNPSNDQCCKSSNLVCSRKHRWCKYEI*
not cleaved [4]: more than 90% peptide remaining after a 24 h incubation

Molecule: CC[C@H](C)[C@H](NC(=O)[C@H](CCC(=O)O)NC(=O)[C@H](Cc1ccc(O)cc1)NC(=O)[C@H](CCCCN)NC(=O)[C@@H]1CSSC[C@@H]2NC(=O)[C@H](CCC(N)=O)NC(=O)[C@H](CC(=O)O)NC(=O)[C@H](CC(N)=O)NC(=O)[C@H](CO)NC(=O)[C@@H]3CCCN3C(=O)[C@H](CC(N)=O)NC(=O)[C@@H]3CSSC[C@H](NC(=O)[C@H](C(C)C)NC(=O)[C@H](CC(C)C)NC(=O)[C@H](CC(N)=O)NC(=O)[C@H](CO)NC(=O)[C@H](CO)NC(=O)[C@H](CCCCN)NC(=O)[C@H](CSSC[C@H](NC(=O)[C@@H](N)CCC(=O)O)C(=O)N[C@@H](CC(C)C)C(=O)NCC(=O)N[C@@H](Cc4ccccc4)C(=O)NCC(=O)N[C@@H](CCCCN)C(=O)NCC(=O)N3)NC2=O)C(=O)N[C@@H](CO)C(=O)N[C@@H](CCCNC(=N)N)C(=O)N[C@@H](CCCCN)C(=O)N[C@@H](Cc2c[nH]cn2)C(=O)N[C@@H](CCCNC(=N)N)C(=O)N[C@@H](Cc2c[nH]c3ccccc23)C(=O)N1)C(N)=O [HnTx-IV]
1D 1H NMR spectral changes at 80 °C [1]: peak broadening and loss of intensity
Degradation at pH 12 [2]: completely degraded

Molecule: ECLEIFKACNPSNDQCCKSSKLVCSRKTRWCKYQI*
not cleaved [4]: more than 90% peptide remaining after a 24 h incubation

Molecule: DCLGFMRKCIPDNDKCCRPNLVCSRTHKWCKYVF*
not cleaved [4]: more than 90% peptide remaining after a 24 h incubation

cleaved bond [5]: Q-Ile34, 24 h
Molecule: DCLGFLWKCNPSNDKCCRPNLVCSRKDKWCKYQI
not cleaved [4]: more than 90% peptide remaining after a 24 h incubation

Molecule: CC[C@H](C)[C@H](NC(=O)[C@H](CCC(N)=O)NC(=O)[C@H](Cc1ccc(O)cc1)NC(=O)[C@H](CCCCN)NC(=O)[C@@H]1CSSC[C@@H]2NC(=O)[C@H](CCCCN)NC(=O)[C@H](CC(=O)O)NC(=O)[C@H](CC(N)=O)NC(=O)[C@H](CO)NC(=O)[C@@H]3CCCN3C(=O)[C@H](CC(N)=O)NC(=O)[C@@H]3CSSC[C@H](NC(=O)[C@H](C(C)C)NC(=O)[C@H](CC(C)C)NC(=O)[C@H](CC(N)=O)NC(=O)[C@@H]4CCCN4C(=O)[C@H](CCCNC(=N)N)NC(=O)[C@H](CSSC[C@H](NC(=O)[C@@H](N)CC(=O)O)C(=O)N[C@@H](CC(C)C)C(=O)NCC(=O)N[C@@H](Cc4ccccc4)C(=O)N[C@@H](CC(C)C)C(=O)N[C@@H](Cc4c[nH]c5ccccc45)C(=O)N[C@@H](CCCCN)C(=O)N3)NC2=O)C(=O)N[C@@H](CO)C(=O)N[C@@H](CCCNC(=N)N)C(=O)N[C@@H](CCCCN)C(=O)N[C@@H](CC(=O)O)C(=O)N[C@@H](CCCCN)C(=O)N[C@@H](Cc2c[nH]c3ccccc23)C(=O)N1)C(=O)O [PaurTx-3] (H-DCLGFLWKCNPSNDKCCRPNLVCSRKDKWCKYQI-OH; disulfide 2-17, 9-23, 16-30)
1D 1H NMR spectral changes at 80 °C [1]: maintained narrow peaks but also showed some loss in intensity
Degradation at pH 12 [2]: larger proportion of the folded peptide remaining
